In paper PMC5007466, “VCP recruitment to mitochondria causes mitophagy impairment and neurodegeneration in models of Huntington's disease” (Nature Communications, 2016):

Tests used:
YAC128 mice = test: Rotarod performance; type: in vivo, mouse; details: YAC128, 3 mg/kg/day from 3 months; from 6 to 12 months of age, n=15–20
From the text: YAC128 (FVB-Tg(YAC128)53Hay/J, JAX stock number: 004938) breeders (FVB/N genetic background) were purchased from Jackson Laboratories. The YAC128 mice contain a full-length human huntingtin gene modified with a 128 CAG repeat expansion in exon 1. The mice were mated, bred and genotyped in the animal facility of Case Western Reserve University. Male mice at the ages of 2, 3, 6, 9 and 12 months were used in the study.
YAC128 mice (Tg) and their age-matched wt littermates were implanted with an osmotic pump containing TAT control peptide or HV-3 peptide (3 mg/kg/day, each) starting from the age of 3 months. The pump was replaced once every month. By the age of 12 months, the treatments were terminated and the mouse samples were harvested for analysis.
The motor coordination and balance of YAC128 mice were tested on an accelerating Rotarod (IITC Life Sciences, Serials 8) at the ages of 2, 3, 6, 9 and 12 months. Training and baseline testing for motor function tasks were conducted at 2 months of age. For training, mice were given three 120-s trials per day at a fixed-speed of 15 r.p.m. for three consecutive days. During the testing phase, the Rotarod accelerated from 5 to 40 r.p.m. over 3 min; the maximum score was 300 s. Rotarod scores were the average of three trials per day (with 2 h rest between trials) for 3 consecutive days.

[1] = test system: HdhQ111 striatal cells and striata of HD R6/2 and YAC128 mice; test: VCP total protein level, HD cells and HD mouse striata (western blot); details: HV-3 treatment, HD cell cultures and HD animal brains
Experimental: Protein concentrations were determined by Bradford assay. Protein was resuspended in Laemmli buffer, loaded on SDS–PAGE, and transferred onto nitrocellulose membranes. Membranes were probed with the indicated antibodies, followed by visualization with ECL. Representative blots have been cropped for presentation. Images of full-size blots are presented in Supplementary Fig. 9. […]
green). Lower: the enlarged area is labeled in green. (f) The sequence in VCP corresponding to HV-3 in Htt was deleted (Δ VCP). GST, GST-VCP, or GST-ΔVCP was incubated with total lysates of mouse brain for 16 hours followed by Western blot with anti -Htt antibodies. The representative blots are from three independent experiments.
Supplementary Figure 5: Treatment of peptide inhibitor HV-3 in HD animal models. (a) HD R6/2 mice and wildtype littermates were treated with either a control peptide or peptide HV-3 (3 mg/kg/day, subcutaneous administration with an Alzet osmotic pump) from 5 to 13 weeks of age. The pump was replaced every four weeks. […] Mouse behaviors and HD -associated pathology were determined […] after beginning treatment. […]
(b) To t a l protein lysates were extracted from HdhQ111 striatal cells and the striata of HD R6/2 and YAC128 mice. VCP protein levels were determined by Western blot analysis. […]

[2] = test system: HD patient-iPS cell derived neurons; test: Mitochondrial length along neurites; type: cell-based, human; details: 1 μM per day for 5 days
Experimental: iPS cells from a normal subject and a HD patient (carrying 41 CAG repeats) were differentiated into neurons using the protocol from our previous studies. Briefly, iPS cells were plated onto 6-well plates precoated with 2.5% Matrigel and allowed to reach 90% confluence in feeder-free medium. For the first 10 days, cells were treated with SB431542 (10 μM; Tocris Bioscience) and Noggin (100 ng/ml) in Neural Media (NM) containing Neurobasal and DMEM (1:1), B27 supplement minus vitamin A (50 × , Invitrogen), N2 supplement (100 × , Invitrogen), GlutaMax (Invitrogen, 100 × ), FGF2 ([…]) and EGF ([…]), 100 units per ml penicillin and 100 μg ml^−1 streptomycin). For the next 10 days, cells were treated with human recombinant Sonic hedgehog (SHH, 200 ng/ml), DKK1 (100 ng/ml) and BDNF (20 ng/ml) and 10 μM Y27632 (Sigma) in neuronal differentiation medium containing Neurobasal and DMEM (1:3), B27, N2, GlutaMax and PS. […]
In patient-iPS cell-derived neurons, to ensure the observation of mitochondria in the medium spiny neurons, the cells were stained with a mitochondrial marker (anti-TOM20, 1:500) and markers for medium spiny neurons (DARPP-32, 1:200, Epitomics). The quantitation of neurite length was conducted only in the neurons immunopositive for both DARPP-32 and Tuj1 (neuron-specific class III beta-tubulin, 1:5,000, Covance). At least 50 neurons/group were counted.

In the case of `CSCC[C@H](NC(=O)[C@@H](NC(=O)[C@H](CC(C)C)NC(=O)[C@@H](NC(=O)[C@H](Cc1c[nH]cn1)NC(=O)CCCCCNC(=O)[C@H](CCCNC(=N)N)NC(=O)[C@H](CCCNC(=N)N)NC(=O)[C@H](CCCNC(=N)N)NC(=O)[C@H](CCC(N)=O)NC(=O)[C@H](CCCNC(=N)N)NC(=O)[C@H](CCCNC(=N)N)NC(=O)[C@H](CCCCN)NC(=O)[C@H](CCCCN)NC(=O)[C@H](CCCNC(=N)N)NC(=O)CNC(=O)[C@@H](N)Cc1ccc(O)cc1)C(C)C)C(C)C)C(=O)N[C@@H](CS)C(=O)N[C@@H](C)C(=O)N[C@H](C(N)=O)[C@@H](C)O` [HV-3], the rotarod performance (YAC128 mice) is reported as “improved general movement activity and rotarod performance”, the “VCP total protein levels” value [1] is reported as “no effects on VCP total protein levels” and the “mitochondrial length along neurites” value [2] is reported as “improved MMP and mitochondrial length along neurites”.
